pIC50: −log10 of the molar value. Where two headings read alike, the source gives them in different places.
How the values were obtained:
[1] = system: LAPC4 prostate cancer cells, which express the AKT1 E17K allele; experiment: Antiproliferative effects in LAPC4 cells (CellTiter Glo, 72 h); type: cell-based; details: Homo sapiens, LAPC4, 72 h, read-out: LAPC4 proliferation IC50
In short: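 Luminescent ATP read-out (CellTiter Glo) after 72 h compound exposure; 1,000 cells/well in IMDM + 12% FBS + 1% P/S. IC50 by Hill equation fit of luminescence vs. log(inhibitor).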

AKT1 E17K = target: T1, AKT1 E17K (Homo sapiens, UniProt P31749, E17K); experiment: Live cell AKT1 E17K target engagement by NanoBRET competitive probe displacement in HEK293 cells; type: binding; details: 2 h at 37° C.
T1 construct: expressed in transfected cells; host or cells: HEK293
In short: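 Read-out: BRET ratio E600/E460 from luminescence at 460 and 600 nm, fitted to a log(inhibitor) vs. response Hill equation for IC50. Intact HEK293 cells expressing NanoLuc-tagged kinase, compound dilutions with ~EC50 ATP-competitive fluorescent tracer, 2 h, 37° C.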

AKT2 = target: T2, AKT2 (Homo sapiens, UniProt P31751); experiment: Live cell AKT2 target engagement by NanoBRET competitive probe displacement in HEK293 cells; type: binding; details: 2 h at 37° C., read-out: AKT2 IC50
T2 construct: expressed in transfected cells; host or cells: HEK293

AKT1 WT = target: T3, AKT1 WT (Homo sapiens, UniProt P31749); experiment: Live cell AKT1 WT target engagement by NanoBRET competitive probe displacement in HEK293 cells; type: binding; details: 2 h at 37° C., read-out: AKT1 WT IC50
T3 construct: expressed in transfected cells; host or cells: HEK293

[2] = NanoBRET live cell target engagement, HEK293 cells
[3] = NanoBRET competitive probe displacement, live HEK293 cells

T3 sequence (P31749 whole entry): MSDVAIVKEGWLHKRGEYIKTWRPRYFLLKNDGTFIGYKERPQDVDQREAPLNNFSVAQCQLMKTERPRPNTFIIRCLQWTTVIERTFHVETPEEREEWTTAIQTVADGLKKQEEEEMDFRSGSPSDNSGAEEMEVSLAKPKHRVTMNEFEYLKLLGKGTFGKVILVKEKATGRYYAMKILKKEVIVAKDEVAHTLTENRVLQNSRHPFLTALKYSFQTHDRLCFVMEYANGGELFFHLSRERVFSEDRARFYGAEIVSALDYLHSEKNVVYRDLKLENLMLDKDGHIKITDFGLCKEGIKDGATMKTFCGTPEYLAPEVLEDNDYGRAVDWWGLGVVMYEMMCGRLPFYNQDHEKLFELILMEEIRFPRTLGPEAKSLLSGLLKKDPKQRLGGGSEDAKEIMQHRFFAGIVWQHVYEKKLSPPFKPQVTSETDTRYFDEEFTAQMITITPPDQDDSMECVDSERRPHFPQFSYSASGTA
T2 sequence (P31751 whole entry): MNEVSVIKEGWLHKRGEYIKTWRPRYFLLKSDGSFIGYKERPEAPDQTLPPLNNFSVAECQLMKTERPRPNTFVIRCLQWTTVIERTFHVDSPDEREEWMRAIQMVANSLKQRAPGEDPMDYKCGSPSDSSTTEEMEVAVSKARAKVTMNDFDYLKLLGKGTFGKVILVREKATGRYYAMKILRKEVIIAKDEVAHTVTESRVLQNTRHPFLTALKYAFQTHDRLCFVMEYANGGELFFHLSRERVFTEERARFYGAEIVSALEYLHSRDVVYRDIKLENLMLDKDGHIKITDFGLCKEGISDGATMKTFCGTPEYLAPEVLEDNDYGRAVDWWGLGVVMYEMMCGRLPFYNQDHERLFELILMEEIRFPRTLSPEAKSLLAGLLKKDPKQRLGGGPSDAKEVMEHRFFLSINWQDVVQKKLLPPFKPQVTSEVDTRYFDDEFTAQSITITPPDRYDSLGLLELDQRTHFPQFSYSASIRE
T1 sequence (P31749 whole entry E17K): as the sequence (P31749 whole entry) above, with E17K counted along it

Compound | pIC50 [1] | pIC50 (AKT1 E17K; [2]) | pIC50 (AKT2; [2]) | pIC50 (AKT1 WT; [2]) | pIC50 (AKT1 E17K; [3]) | pIC50 (AKT2; [3]) | pIC50 (AKT1 WT; [3])
Cc1cncc(C(=O)N[C@H]2CCc3cc(-n4c(-c5cccnc5N)nc5ccc(-n6cccn6)nc54)ccc32)c1 [Compound 30, (S)—N-(5-(2-(2-aminopyridin-3-yl)-5-(1H-pyrazol-1-yl)-3H-imidazo[4,5-b]pyridin-3-yl)-2,3-dihydro-1H-inden-1-yl)-5-methylnicotinamide] | 6.14 | 7.29 | 6.90 | 7.97 |  |  | 
COc1cc(C(=O)N[C@H]2CCc3cc(-n4c(-c5cccnc5N)nc5ccc(-n6cccn6)nc54)ccc32)c(C)cn1 [Compound 357] | 6.06 | 7.62 | 7.70 | 8.24 |  |  | 
CN(C)C(=O)N1CCC(N[C@H]2CCc3cc(-n4c(-c5cccnc5N)nc5ccc(-n6cccn6)nc54)ccc32)CC1 [Compound 394] | < 5.00 |  |  |  | < 6.00 | 5.83 | 7.00
Cn1nc(C(=O)N[C@H]2CCc3cc(-n4c(-c5cccnc5N)nc5ccc(-n6cccn6)nc54)ccc32)c2c1OCC2 [Compound 390] | < 5.00 | 7.50 | 6.98 | 7.80 |  |  | 
Cc1ccc(C(=O)N[C@H]2CCc3cc(-n4c(-c5cccnc5N)nc5ccc(-n6cccn6)nc54)ccc32)cn1 [Compound 26, (S)—N-(5-(2-(2-aminopyridin-3-yl)-5-(1H-pyrazol-1-yl)-3H-imidazo[4,5-b]pyridin-3-yl)-2,3-dihydro-1H-inden-1-yl)-6-methylnicotinamide] | 5.97 | 7.57 | 7.16 | 8.19 |  |  | 
Nc1ncccc1-c1nc2ccc(-n3cccn3)nc2n1-c1ccc2c(c1)CC[C@@H]2NC(=O)c1ccc(C(F)F)cc1 [Compound 61, (S)—N-(5-(2-(2-aminopyridin-3-yl)-5-(1H-pyrazol-1-yl)-3H-imidazo[4,5-b]pyridin-3-yl)-2,3-dihydro-1H-inden-1-yl)-4-(difluoromethyl)benzamide] | 6.04 | 7.14 | 7.30 | 8.32 |  |  | 

Reference: patent US12624034B2, “Non-covalent modifiers of AKT1 and uses thereof” (Terremoto Biosciences, Inc., priority 2023, dated 2026)
